Data reported in the supplement of paper PMC10883282.

Tests used:
Test in all cases: relative viability vs DMSO control (72 h) (fraction); higher = more viable cells
[1] = system: SYO-1
Outline: (§1)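 Relative viability is percent growth read by ATPLite and averaged over up to triplicate wells. Sarcoma cells were seeded in 384-well plates to reach 80–90% confluence and given 2.5 µl of serially diluted compound after 24 h, from source plates of 10 mM to 0.0002 mM. Incubation lasted 72 h at 37 °C, 5% CO2, with 0.1% DMSO vehicle and a 5 µM positive control, and the data were rescaled so 1 equals full and 0 equals none.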

[2] = system: RD
Outline: as §1

[3] = system: SW684
Outline: as §1

[4] = system: SW872
Outline: as §1

[5] = system: HS729
Outline: as §1

[6] = system: SW1353
Outline: as §1

[7] = system: KHOS-NP
Outline: as §1

[8] = system: G401
Outline: as §1

[9] = system: HT1080
Outline: as §1

[10] = system: RD-ES
Outline: as §1

[11] = system: SK-LMS-1
Outline: as §1

[12] = system: KHOS-240S
Outline: as §1

CN(C)C/C=C/C(=O)Nc1cc2c(Nc3ccc(F)c(Cl)c3)ncnc2cc1O[C@H]1CCOC1 [Afatinib]
Details | relative viability
[1], 0.00017 µM | 1.03
[1], 0.00051 µM | 1.01
[1], 0.00152 µM | 0.979
[1], 0.00457 µM | 0.949
[1], 0.01372 µM | 0.957
[1], 0.04115 µM | 0.946
[1], 0.1235 µM | 0.903
[1], 0.3704 µM | 0.838
[1], 1.111 µM | 0.5276
[1], 3.333 µM | 0.00877
[1], 10 µM | -0.00643
[2], 0.00017 µM | 1.08
[2], 0.00051 µM | 1.13
[2], 0.00152 µM | 1.15
[2], 0.00457 µM | 1.11
[2], 0.01372 µM | 1.11
[2], 0.04115 µM | 1.07
[2], 0.1235 µM | 1.09
[2], 0.3704 µM | 1.03
[2], 1.111 µM | 0.569
[2], 3.333 µM | 0.0531
[2], 10 µM | 0.022
[3], 0.00017 µM | 1.18
[3], 0.00051 µM | 1.18
[3], 0.00152 µM | 1.23
[3], 0.00457 µM | 1.18
[3], 0.01372 µM | 1.14
[3], 0.04115 µM | 1.13
[3], 0.1235 µM | 1.1
[3], 0.3704 µM | 1.04
[3], 1.111 µM | 0.816
[3], 3.333 µM | 0.527
[3], 10 µM | 0.203
[4], 0.00017 µM | 1.07
[4], 0.00051 µM | 1.14
[4], 0.00152 µM | 1.09
[4], 0.00457 µM | 1.11
[4], 0.01372 µM | 1.07
[4], 0.04115 µM | 1.06
[4], 0.1235 µM | 1.02
[4], 0.3704 µM | 0.896
[4], 1.111 µM | 0.595
[4], 3.333 µM | 0.304
[4], 10 µM | 0.257
[5], 0.00017 µM | 1.07
[5], 0.00051 µM | 0.975
[5], 0.00152 µM | 0.989
[5], 0.00457 µM | 0.953
[5], 0.01372 µM | 0.958
[5], 0.04115 µM | 0.968
[5], 0.1235 µM | 0.937
[5], 0.3704 µM | 0.802
[5], 1.111 µM | 0.667
[5], 3.333 µM | 0.529
[5], 10 µM | 0.007367
[6], 0.00017 µM | 1.03
[6], 0.00051 µM | 1.01
[6], 0.00152 µM | 0.965
[6], 0.00457 µM | 0.923
[6], 0.01372 µM | 0.822
[6], 0.04115 µM | 0.771
[6], 0.1235 µM | 0.749
[6], 0.3704 µM | 0.653
[6], 1.111 µM | 0.485
[6], 3.333 µM | 0.3677
[6], 10 µM | 0.22
[7], 0.00017 µM | 1.09
[7], 0.00051 µM | 1.08
[7], 0.00152 µM | 1.07
[7], 0.00457 µM | 1.07
[7], 0.01372 µM | 1.07
[7], 0.04115 µM | 1.07
[7], 0.1235 µM | 1.06
[7], 0.3704 µM | 1.08
[7], 1.111 µM | 1.02
[7], 3.333 µM | 0.967
[7], 10 µM | 0.0212
[8], 0.00017 µM | 1.02
[8], 0.00051 µM | 1.03
[8], 0.00152 µM | 1.015
[8], 0.00457 µM | 1.03
[8], 0.01372 µM | 1.03
[8], 0.04115 µM | 0.9814
[8], 0.1235 µM | 0.97
[8], 0.3704 µM | 0.846
[8], 1.111 µM | 0.61
[8], 3.333 µM | 0.472
[8], 10 µM | 0.212
[9], 0.00017 µM | 1.1
[9], 0.00051 µM | 1.12
[9], 0.00152 µM | 1.1
[9], 0.00457 µM | 1.08
[9], 0.01372 µM | 1.07
[9], 0.04115 µM | 1.07
[9], 0.1235 µM | 1.11
[9], 0.3704 µM | 1.11
[9], 1.111 µM | 1.02
[9], 3.333 µM | 0.767
[9], 10 µM | 0.173
[10], 0.00017 µM | 0.992
[10], 0.00051 µM | 0.986
[10], 0.00152 µM | 1
[10], 0.00457 µM | 0.973
[10], 0.01372 µM | 1
[10], 0.04115 µM | 0.969
[10], 0.1235 µM | 0.914
[10], 0.3704 µM | 0.829
[10], 1.111 µM | 0.647
[10], 3.333 µM | 0.381
[10], 10 µM | 0.0144
[11], 0.00017 µM | 1.1
[11], 0.00051 µM | 1.1
[11], 0.00152 µM | 1.11
[11], 0.00457 µM | 1.08
[11], 0.01372 µM | 1.13
[11], 0.04115 µM | 1.04
[11], 0.1235 µM | 1.01
[11], 0.3704 µM | 0.879
[11], 1.111 µM | 0.724
[11], 3.333 µM | 0.462
[11], 10 µM | 0.135
[12], 0.00017 µM | 1.06
[12], 0.00051 µM | 1.06
[12], 0.00152 µM | 1.07
[12], 0.00457 µM | 1.08
[12], 0.01372 µM | 1.06
[12], 0.04115 µM | 1.04
[12], 0.1235 µM | 1.03
[12], 0.3704 µM | 0.991
[12], 1.111 µM | 0.715
[12], 3.333 µM | 0.402
[12], 10 µM | 0.0697

COc1cc(Nc2ncc3c(n2)-c2ccc(Cl)cc2C(c2c(F)cccc2OC)=NC3)ccc1C(=O)O [Alisertib]
Details | relative viability
[1], 0.00017 µM | 0.934
[1], 0.00051 µM | 0.9195
[1], 0.00152 µM | 0.903
[1], 0.00457 µM | 0.863
[1], 0.01372 µM | 0.826
[1], 0.04115 µM | 0.783
[1], 0.1235 µM | 0.618
[1], 0.3704 µM | 0.459
[1], 1.111 µM | 0.371
[1], 3.333 µM | 0.355
[1], 10 µM | 0.3041
[2], 0.00017 µM | 1.08
[2], 0.00051 µM | 1.1
[2], 0.00152 µM | 1.09
[2], 0.00457 µM | 1.06
[2], 0.01372 µM | 1.07
[2], 0.04115 µM | 1.04
[2], 0.1235 µM | 0.863
[2], 0.3704 µM | 0.679
[2], 1.111 µM | 0.517
[2], 3.333 µM | 0.517
[2], 10 µM | 0.474
[3], 0.00017 µM | 1.16
[3], 0.00051 µM | 1.17
[3], 0.00152 µM | 1.18
[3], 0.00457 µM | 1.15
[3], 0.01372 µM | 1.1
[3], 0.04115 µM | 1.09
[3], 0.1235 µM | 1.01
[3], 0.3704 µM | 1.01
[3], 1.111 µM | 0.983
[3], 3.333 µM | 0.919
[3], 10 µM | 0.869
[4], 0.00017 µM | 1.02
[4], 0.00051 µM | 0.974
[4], 0.00152 µM | 0.989
[4], 0.00457 µM | 1.03
[4], 0.01372 µM | 1.01
[4], 0.04115 µM | 1.01
[4], 0.1235 µM | 0.959
[4], 0.3704 µM | 0.731
[4], 1.111 µM | 0.759
[4], 3.333 µM | 0.738
[4], 10 µM | 0.661
[5], 0.00017 µM | 0.938
[5], 0.00051 µM | 0.943
[5], 0.00152 µM | 0.932
[5], 0.00457 µM | 0.888
[5], 0.01372 µM | 0.859
[5], 0.04115 µM | 0.879
[5], 0.1235 µM | 0.793
[5], 0.3704 µM | 0.77
[5], 1.111 µM | 0.733
[5], 3.333 µM | 0.689
[5], 10 µM | 0.716
[6], 0.00017 µM | 0.987
[6], 0.00051 µM | 0.972
[6], 0.00152 µM | 0.969
[6], 0.00457 µM | 0.961
[6], 0.01372 µM | 0.976
[6], 0.04115 µM | 0.921
[6], 0.1235 µM | 0.886
[6], 0.3704 µM | 0.908
[6], 1.111 µM | 0.85
[6], 3.333 µM | 0.817
[6], 10 µM | 0.685
[7], 0.00017 µM | 1.08
[7], 0.00051 µM | 1.1
[7], 0.00152 µM | 1.09
[7], 0.00457 µM | 1.08
[7], 0.01372 µM | 1.09
[7], 0.04115 µM | 1.07
[7], 0.1235 µM | 1.06
[7], 0.3704 µM | 1.05
[7], 1.111 µM | 0.951
[7], 3.333 µM | 0.925
[7], 10 µM | 0.672
[8], 0.00017 µM | 1.01
[8], 0.00051 µM | 0.979
[8], 0.00152 µM | 0.984
[8], 0.00457 µM | 0.966
[8], 0.01372 µM | 0.892
[8], 0.04115 µM | 0.845
[8], 0.1235 µM | 0.756
[8], 0.3704 µM | 0.706
[8], 1.111 µM | 0.705
[8], 3.333 µM | 0.637
[8], 10 µM | 0.563
[9], 0.00017 µM | 1.11
[9], 0.00051 µM | 1.07
[9], 0.00152 µM | 1.08
[9], 0.00457 µM | 1.06
[9], 0.01372 µM | 1.07
[9], 0.04115 µM | 0.994
[9], 0.1235 µM | 0.974
[9], 0.3704 µM | 0.876
[9], 1.111 µM | 0.766
[9], 3.333 µM | 0.715
[9], 10 µM | 0.668
[10], 0.00017 µM | 0.95
[10], 0.00051 µM | 0.964
[10], 0.00152 µM | 0.952
[10], 0.00457 µM | 0.909
[10], 0.01372 µM | 0.881
[10], 0.04115 µM | 0.747
[10], 0.1235 µM | 0.428
[10], 0.3704 µM | 0.256
[10], 1.111 µM | 0.213
[10], 3.333 µM | 0.243
[10], 10 µM | 0.236
[11], 0.00017 µM | 1.03
[11], 0.00051 µM | 1.02
[11], 0.00152 µM | 1.01
[11], 0.00457 µM | 1.02
[11], 0.01372 µM | 1
[11], 0.04115 µM | 0.806
[11], 0.1235 µM | 0.772
[11], 0.3704 µM | 0.78
[11], 1.111 µM | 0.803
[11], 3.333 µM | 0.815
[11], 10 µM | 0.678
[12], 0.00017 µM | 1.04
[12], 0.00051 µM | 1.04
[12], 0.00152 µM | 1.03
[12], 0.00457 µM | 1.01
[12], 0.01372 µM | 0.996
[12], 0.04115 µM | 0.884
[12], 0.1235 µM | 0.807
[12], 0.3704 µM | 0.758
[12], 1.111 µM | 0.739
[12], 3.333 µM | 0.681
[12], 10 µM | 0.622
